The values that follow are results of earlier work, collected in patent US20100016582A1 (Wyeth, priority 2008, published 2010).

Each structure is given as a SMILES string.

For data set [1] the following is noted: contact with a solvent or solvent mixture (e.g., ethyl acetate and ethanol).
The conditions of data set [2]: drug formulations; acetic acid.
The test system of another data set is uterine response. Particulars: preclinical models of uterine stimulation.
For data set [3], the system named is ovariectomized rat model of osteopenia.
Data set [4] has as its system MCF-7 cell line (human breast cancer cell line).

`Cc1c(-c2ccc(O)cc2)n(Cc2ccc(OCCN3CCCCCC3)cc2)c2ccc(O)cc12` [Form A, 1-[4-(2-azepan-1-yl-ethoxy)-benzyl]-2-(4-hydroxy-phenyl)-3-methyl-1H-indol-5-ol acetic acid]: in data set [1], the “conversion of Form A to Form B” value was “can easily convert to Form B”. Besides, the bioavailability entry in data set [2] is given as “better bioavailability in some drug formulations”.

In the case of `Cc1c(-c2ccc(O)cc2)n(Cc2ccc(OCCN3CCCCCC3)cc2)c2ccc(O)cc12` [bazedoxifene acetate, 1-[4-(2-azepan-1-yl-ethoxy)-benzyl]-2-(4-hydroxy-phenyl)-3-methyl-1H-indol-5-ol acetic acid], the “stimulation of uterine response” value in the data set on uterine response was “little or no stimulation of uterine response”. Moreover, in data set [3], the “prevention of bone loss” value is reported as “estrogen agonist-like effect in preventing bone loss” and the reduction of cholesterol result was “reducing cholesterol”. Moreover, the estrogen antagonist behaviour result in data set [4] was “behaves as an estrogen antagonist”.
